Like-named read-outs stand apart in the source and are kept apart here.
How the values were obtained:
[1] = system: human multiple myeloma cell line RPMI 8226; test: Cell level anti-tumor activity test, CCK-8, multiple myeloma cells; type: cell-based; details: RPMI-8226, 72 h
Method: According to the cell growth rate, the multiple myeloma cells in the logarithmic growth phase were inoculated into the 96-well culture plate at 100 μL/well, and then 1 μL/well of compound solution was added, and three replicate wells were set for each concentration, and the DMSO solvent control at corresponding concentration was also set.
CCK-8 staining method: after the drug was applied, 10 μL of CCK-8 solution was added to each well, and incubated at 37° C. for 3 h. The OD value at 450 nm and 690 nm was measured by microplate reader.
The inhibition rate (% Inhibiton) and activity (% Activity) of the test substance on the proliferation of multiple myeloma cells were calculated according to the following formula, wherein ODsample refers to the absorbance value of the administration hole (OD450-OD690). OD DMSO refers to the absorbance of the DMSO control well (OD450-OD690).
The logarithm of the concentration was plotted against the activity percentage (% Activity), and the fitted curve was calculated by nonlinear regression. The value of IC50 was calculated by using the GraphPad Prism5 software log(inhibitor) vs response—Variable slope parameter setting. Each set of experiments was repeated three times independently, while 3 replicate wells per concentration.

Lung Cancer A549 = test: Tumor cell proliferation inhibition, SRB; type: cell-based; details: Homo sapiens, 72 h, read-out: IC50 (mean ± SD) Lung Cancer A549
Method: The antitumor activity test of the example compounds was carried out, and the in vitro antitumor activities of the compounds were evaluated by measuring the growth inhibitory activities of the compounds against a plurality of human tumor cell lines.
Tumor cells (except MDA-MB-231) were routinely cultured under 37° C., 5% CO2.
According to the cell growth rate, the tumor cells in the logarithmic growth phase were inoculated into 96-well culture plates at 90 μL/well, and adherently grown for 24 h and then added with 10 μL/well, and each concentration was set to three replicate wells, and DMSO vehicle controls and cell-free wells at corresponding concentration were also set. Tumor cells (except MDA-MB-231) were cultured for 72 h under conditions of 37° C. and 5% CO2 (MDA-MB-231 cells were cultured at 37° C. without CO2). […] The OD value at 450 nm was measured by a microplate reader. […] After dried by convert placing in an oven, 150 μL of 10 mM Tris solution was added into each well, and the OD value at 560 nm was measured by a microplate reader.
The inhibition rate of tumor cell proliferation was calculated according to the following formula. The half-inhibition amount IC50 value was calculated by Log it method. […]

Lung Cancer EBC-1 = test: Tumor cell proliferation inhibition, SRB; type: cell-based; details: Homo sapiens, EBC-1, 72 h, read-out: IC50 (mean ± SD) Lung Cancer EBC-1
[2] = system: human myeloma RPMI 8226 NOD/SCID mouse xenografts; test: Pharmacological experiment in human myeloma RPMI 8226 NOD/SCID mouse transplantation model; type: in vivo
Text: The efficacy of compound H08 in an animal model of human multiple myeloma was investigated.
NOD/SCID mice, female, 5-6 weeks old, body weight 20±3 g, provided by Shanghai Lingchang Biotechnology Co., Ltd., production certificate number: SCXK (Shanghai) 2013-0018. Number of animals per group: 6. IACUC number: 2013-0007 (Nanmo).
Human myeloma RPMI 8226 cell line was preserved by Li Jia et al., Shanghai Institute of Materia Medica. The cell line was inoculated to the right axillary fossa of NOD/SCID mice, and the amount of cells inoculated was 1×10^7 cells each mouse. After the transplanted tumor was formed, it was used in NOD/SCID mice after 2 passages.
The tumor tissue in the vigorous growth period was cut into 1.5 mm^3, and inoculated subcutaneously in the right axilla of the NOD/SCID mice under aseptic conditions. The diameter of the transplanted tumor of NOD/SCID mice were measured with a vernier caliper and the animals were randomly grouped when the tumor growed up to 100-300 mm^3. The grouping scheme is shown in Table 5, and the solvent control group was given an equal amount of blank solvent. The diameter of the transplanted tumor was measured twice a week during the entire experiment, and the body weight of the mice was weighed as well. The tumor volume (TV) was calculated as: TV=½×a×b^2, wherein a and b represent length and width, respectively. The relative tumor volume (RTV) was calculated based on the measured results and the formula was: RTV=Vt/V0. Wherein V0 is the tumor volume measured before grouping and dosing (d0), and Vt is the tumor volume at each measurement.

tumor cell = details: WO2012152208, background; read-out: IC50 tumor cell proliferation inhibitory activity; cited from earlier work
human HDAC1 = target: T1, human HDAC1 (Homo sapiens, UniProt Q13547); test: Inhibition activity test of histone deacetylase 1 (fluorescence, Ac-Lys-Tyr-Lys(Ac)-AMC substrate); type: biochemical; details: mean of 3 experiments
T1 construct: made in house
Method: (§1) The inhibitory activity of the example compounds against human histone deacetylases 1, 3 and 6 (i.e., human HDAC1, HDAC3 and HDAC6) was tested.
(§2) Substrates: HDAC1, HDAC 3: Ac-Lys-Tyr-Lys (Ac)-AMC; HDAC6: Boc-lys (Ac)-AMC; all purchased from Shanghai Jill Biochemical Co., Ltd.
(§3) The activity of HDAC1 and HDAC3 was detected using Ac-Lys-Tyr-Lys(Ac)-AMC as substrate, and the activity of HDAC6 was detected using Boc-Lys(Ac)-AMC as substrate, and both were detected by fluorescence detection. […] The initial velocity of the reaction is calculated by detecting the change in the fluorescence signal over time.
(§4) The test compound, enzyme and reaction buffer were well mixed and the substrate was added to start the reaction. […]
(§5) The fluorescence signal intensity at 460 nm was measured, and then the activity percentage (% Activity) of each concentration groups of the sample was calculated. […]
(§6) The logarithm of the concentration was plotted against the percentage of activity, and then the nonlinear regression was used to calculate the fit curve. The value of IC50 was calculated by the software GraphPad Prism 5 formula log(inhibitor) vs. response—Variable slope.
(§7) Each of the above experiments was repeated 3 times, and there were more than 3 replicate wells for each experiment. The average IC50 value of the three experiments was determined as the final indicator of the compound inhibition ability.

human HDAC3 = target: T2, human HDAC3 (Homo sapiens, UniProt O15379); test: Inhibition activity test of histone deacetylase 3 (fluorescence, Ac-Lys-Tyr-Lys(Ac)-AMC substrate); type: biochemical; details: mean of 3 experiments
T2 construct: made in house
Method: as §1, §2, §3, §4, §5, §6, §7

human HDAC6 = target: T3, human HDAC6 (Homo sapiens, UniProt Q9UBN7); test: Inhibition activity test of histone deacetylase 6 (fluorescence, Boc-Lys(Ac)-AMC substrate); type: biochemical; details: mean of 3 experiments
T3 construct: made in house
T3 sequence (Q9UBN7 1-1215): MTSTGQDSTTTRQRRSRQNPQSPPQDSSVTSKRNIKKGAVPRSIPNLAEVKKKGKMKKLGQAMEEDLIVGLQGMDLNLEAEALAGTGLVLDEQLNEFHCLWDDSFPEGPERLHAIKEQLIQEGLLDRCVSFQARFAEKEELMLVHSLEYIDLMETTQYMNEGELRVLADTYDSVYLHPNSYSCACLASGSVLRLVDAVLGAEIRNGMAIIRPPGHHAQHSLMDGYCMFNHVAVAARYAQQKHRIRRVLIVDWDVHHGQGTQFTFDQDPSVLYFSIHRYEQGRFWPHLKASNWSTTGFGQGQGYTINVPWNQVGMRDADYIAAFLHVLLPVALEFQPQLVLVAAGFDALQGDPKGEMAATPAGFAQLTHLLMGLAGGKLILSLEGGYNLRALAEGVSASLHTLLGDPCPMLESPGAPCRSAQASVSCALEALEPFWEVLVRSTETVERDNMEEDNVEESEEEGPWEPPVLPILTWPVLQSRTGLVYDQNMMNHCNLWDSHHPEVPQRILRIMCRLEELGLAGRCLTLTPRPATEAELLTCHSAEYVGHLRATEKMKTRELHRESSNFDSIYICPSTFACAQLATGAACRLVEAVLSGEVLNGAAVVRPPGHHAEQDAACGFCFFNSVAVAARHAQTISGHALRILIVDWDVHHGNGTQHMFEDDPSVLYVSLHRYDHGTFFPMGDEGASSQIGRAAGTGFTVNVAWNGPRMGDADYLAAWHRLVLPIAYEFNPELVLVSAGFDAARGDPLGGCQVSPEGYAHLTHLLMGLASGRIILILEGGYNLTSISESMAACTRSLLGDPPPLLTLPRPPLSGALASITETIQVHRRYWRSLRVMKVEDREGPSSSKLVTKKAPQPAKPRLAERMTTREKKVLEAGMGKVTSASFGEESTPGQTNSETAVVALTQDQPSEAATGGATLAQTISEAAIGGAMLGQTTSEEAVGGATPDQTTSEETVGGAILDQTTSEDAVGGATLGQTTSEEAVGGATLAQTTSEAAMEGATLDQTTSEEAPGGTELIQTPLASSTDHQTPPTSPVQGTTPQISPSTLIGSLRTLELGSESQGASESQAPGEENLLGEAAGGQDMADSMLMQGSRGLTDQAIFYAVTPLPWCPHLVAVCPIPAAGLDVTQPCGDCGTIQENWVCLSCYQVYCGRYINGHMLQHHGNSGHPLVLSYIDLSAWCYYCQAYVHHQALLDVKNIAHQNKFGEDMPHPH
Method: as §1, §2, §3, §4, §5, §6, §7

Liver cancer BEL-7404 = test: Tumor cell proliferation inhibition, SRB; type: cell-based; details: Homo sapiens, 72 h, read-out: IC50 (mean ± SD) Liver cancer BEL-7404
Method: (§8) After the drug was applied, 10 μL of CCK-8 solution was added to each well in Ramos, HL-60, Molt-4, Raji, CCRF-CEM, and SU-DHL-6 tumor cell line experiments, and incubated at 37° C. for 2 h. The OD value at 450 nm was measured by a microplate reader. […] After dried by convert placing in an oven, the plate was taken out and 100 μL of SRB solution (4 mg/mL SRB powder dissolved in 1% glacial acetic acid) was added into each well. After standed at room temperature for 15 minutes, it was washed five times with 1% glacial acetic acid to completely remove the SRB which has not bounded to the plate protein. After dried by convert placing in an oven, 150 μL of 10 mM Tris solution was added into each well, and the OD value at 560 nm was measured by a microplate reader.
(§9) The inhibition rate of tumor cell proliferation was calculated according to the following formula. The half-inhibition amount IC50 value was calculated by Log it method. Inhibition rate=(control group OD value−administration group OD value)/control group OD value×100%. Each set of experiments was repeated three times independently, while 3 replicate wells per concentration.

[3] = system: Acute lymphoblastic leukemia MOLT-4; test: Tumor cell proliferation inhibition, CCK-8; type: cell-based; details: Homo sapiens, 72 h, read-out: IC50 (mean ± SD) Acute lymphoblastic leukemia MOLT-4
Method: as §8, §9

lymphoma Ramos = test: Tumor cell proliferation inhibition, CCK-8; type: cell-based; details: Homo sapiens, 72 h, read-out: IC50 (mean ± SD) lymphoma Ramos
Method: as §8, §9

[4] = system: Human blood lymphoma Raji; test: Tumor cell proliferation inhibition, CCK-8; type: cell-based; details: 72 h, read-out: IC50 (mean ± SD) Human blood lymphoma Raji
Method: as §8, §9

stomach cancer MKN-74 = test: Tumor cell proliferation inhibition, SRB; type: cell-based; details: Homo sapiens, 72 h, read-out: IC50 (mean ± SD) stomach cancer MKN-74
Method: as §8, §9

[5] = system: Embryonic lung cells MRC-5; test: Cell proliferation inhibition, SRB; type: cell-based; details: Homo sapiens, MRC5, 72 h, read-out: IC50 (mean ± SD) Embryonic lung cells MRC-5
Method: as §8, §9

promyeloid leukemia HL60 = test: Tumor cell proliferation inhibition, CCK-8; type: cell-based; details: Homo sapiens, HL-60, 72 h, read-out: IC50 (mean ± SD) promyeloid leukemia HL60
Method: as §8, §9

[6] = system: Acute lymphocytic leukemia T lymphocyte CCRF; test: Tumor cell proliferation inhibition, CCK-8; type: cell-based; details: Homo sapiens, 72 h, read-out: IC50 (mean ± SD) Acute lymphocytic leukemia T lymphocyte CCRF
Method: as §8, §9

[7] = background, subsequent studies on 201410136196.7 compounds; cited from earlier work
[8] = Preliminary metabolic experiments, oral bioavailability in mice; details: mouse, in vivo
[9] = read-out: IC50 (growth inhibition, RPMI 8226)
[10] = 1 mg/kg, i.v., twice/week for 3 weeks
[11] = 1 mg/kg, i.v., twice/week for 3 weeks, d21
[12] = 100 mg/kg bid, p.o., 3 weeks, d21
[13] = read-out: IC50 (proliferation of RPMI 8226)
[14] = 25 mg/kg, p.o., once/day, 3 weeks
[15] = 25 mg/kg, p.o., once/day, 3 weeks, d21
[16] = 50 mg/kg, p.o., once/day, 3 weeks
[17] = 50 mg/kg, p.o., once/day, 3 weeks, d21

T1 sequence (Q13547 whole entry): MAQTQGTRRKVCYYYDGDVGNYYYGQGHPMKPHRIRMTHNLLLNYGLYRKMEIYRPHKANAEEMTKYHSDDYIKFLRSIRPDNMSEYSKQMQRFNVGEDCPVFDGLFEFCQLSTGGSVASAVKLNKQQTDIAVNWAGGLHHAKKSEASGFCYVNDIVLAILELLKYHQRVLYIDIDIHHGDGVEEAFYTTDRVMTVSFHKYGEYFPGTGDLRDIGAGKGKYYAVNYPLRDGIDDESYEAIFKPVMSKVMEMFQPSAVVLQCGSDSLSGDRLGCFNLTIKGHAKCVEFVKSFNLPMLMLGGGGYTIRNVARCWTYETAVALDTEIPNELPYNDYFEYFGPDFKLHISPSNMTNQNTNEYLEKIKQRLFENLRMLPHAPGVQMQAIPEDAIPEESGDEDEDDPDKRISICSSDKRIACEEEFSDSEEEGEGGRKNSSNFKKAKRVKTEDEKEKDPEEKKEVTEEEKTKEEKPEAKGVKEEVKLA
T2 sequence (O15379 whole entry): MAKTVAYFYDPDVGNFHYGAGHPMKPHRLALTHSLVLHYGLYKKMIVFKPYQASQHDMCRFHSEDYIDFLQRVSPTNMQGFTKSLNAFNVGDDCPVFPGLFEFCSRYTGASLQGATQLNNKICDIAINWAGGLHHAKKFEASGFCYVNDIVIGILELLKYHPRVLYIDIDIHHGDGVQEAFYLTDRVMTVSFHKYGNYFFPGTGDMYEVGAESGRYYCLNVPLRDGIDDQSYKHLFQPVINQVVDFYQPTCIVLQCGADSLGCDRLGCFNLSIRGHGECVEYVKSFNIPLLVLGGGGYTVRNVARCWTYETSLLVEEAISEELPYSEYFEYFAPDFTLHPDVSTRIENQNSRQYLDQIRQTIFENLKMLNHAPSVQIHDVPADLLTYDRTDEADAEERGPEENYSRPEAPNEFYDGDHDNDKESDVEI

## COc1ccc(-c2cnc(-c3nc(C(=O)N[C@@H](C)c4ccc(C(=O)NO)cc4)c(C4CC4)s3)s2)cc1 [Compound H10]
[1]; [9]
  IC50: 12 ± 4 nM

## O=C(CCCCCCC(=O)Nc1ccccc1)NO [SAHA, vorinostat]
Lung Cancer A549
  IC50: 2910 ± 678 nM
Lung Cancer EBC-1
  IC50: 1550 ± 474 nM

## CC(C)C[C@H](NC(=O)[C@H](Cc1ccccc1)NC(=O)c1cnccn1)B(O)O [PS341, Bortezomib, reference compound]
[2]; [10]
  TV d0 (average ± SD): 155 ± 48 mm^3
  body weight d0: 21.9 ± 1.0 g
[2]; [11]
  RTV (Average ± SD): 7.19 ± 3.58
  T/C relative tumor growth rate: 45.27%
  TV d21 (average ± SD): 1,077 ± 538 mm^3
  body weight d21: 23.3 ± 1.7 g

## O=C(CCNC(=O)c1nc(-c2nccs2)sc1C1CC1)NO [bexanostat, reference compound]
[2]; 100 mg/kg bid, p.o., 3 weeks
  TV d0 (average ± SD): 155 ± 46 mm^3
  body weight d0: 22.2 ± 1.4 g
[2]; [12]
  RTV (Average ± SD): 4.83 ± 0.51
  TV d21 (average ± SD): 620 ± 87 mm^3
  body weight d21: 19.8 ± 1.0 g
[1]; [9]
  IC50: 690 ± 410 nM
Tumor cell
  IC50: < 400 nM

## O=C(NO)c1ccc(CNC(=O)c2nc(-c3ncc(-c4ccccc4)s3)sc2C2CC2)cc1 [Compound H12]
Human HDAC1
  IC50: 6.71 ± 0.11 nM
[1]; [9]
  IC50: 8 nM
[1]; [13]
  IC50: ~8 nM
Human HDAC3
  IC50: 6.15 ± 0.25 nM
Human HDAC6
  IC50: 9.78 ± 0.02 nM

## Cc1[nH]c2ccccc2c1CCNCc1ccc(/C=C/C(=O)NO)cc1 [LBH589, panobinostat]
Liver cancer BEL-7404
  IC50: 18.6 ± 1.51 nM
[3]
  IC50: 15 ± 8.18 nM
Lymphoma Ramos
  IC50: 7.14 ± 0.42 nM
[4]
  IC50: 12.3 ± 1.61 nM
Lung Cancer A549
  IC50: 48.9 ± 7.01 nM
Stomach cancer MKN-74
  IC50: 29.2 ± 0.97 nM
[5]
  IC50: 76.9 ± 7.22 nM
Promyeloid leukemia HL60
  IC50: 12.3 ± 0.24 nM
[6]
  IC50: 13.7 ± 0.93 nM

## C[C@H](NC(=O)c1nc(-c2nccs2)sc1C1CC1)c1ccc(C(=O)NO)cc1 [Compound H02]
[1]; [9]
  IC50: 28 ± 10 nM

## CC(NC(=O)c1nc(-c2nccs2)sc1C1CC1)c1ccc(C(=O)NO)cc1 (stereo not shown) [Compound H01]
[1]; [9]
  IC50: 182 ± 15 nM

## C[C@H](NC(=O)c1nc(-c2nc3c(s2)CCCC3)sc1C1CC1)c1ccc(C(=O)NO)cc1 [Compound H07]
[1]; [9]
  IC50: 139 ± 19 nM

## C[C@@H](NC(=O)c1nc(-c2ncc(-c3ccccc3)s2)sc1C1CC1)c1ccc(C(=O)NO)cc1 [Compound H11]
[1]; [9]
  IC50: 326 ± 18 nM

## C[C@H](NC(=O)c1nc(-c2ncc(-c3ccc(F)cc3)s2)sc1C1CC1)c1ccc(C(=O)NO)cc1 [Compound H09]
[1]; [9]
  IC50: 18 ± 6 nM

## Cc1cnc(-c2nc(C(=O)N[C@@H](C)c3ccc(C(=O)NO)cc3)c(C3CC3)s2)s1 [Compound H05]
[1]; [9]
  IC50: 123 ± 43 nM

## Cc1csc(-c2nc(C(=O)N[C@@H](C)c3ccc(C(=O)NO)cc3)c(C3CC3)s2)n1 [Compound H06]
[1]; [9]
  IC50: 50 ± 22 nM

## O=C(NCCC(=O)C(F)(F)F)c1nc(-c2nccs2)sc1C1CC1 [GCJ403]
[7]
  oral bioavailability: 14.7%

## C[C@H](NC(=O)c1nc(-c2ncc(-c3ccccc3)s2)sc1C1CC1)c1ccc(C(=O)NO)cc1 [Compound H08]
[2]; [14]
  TV d0 (average ± SD): 154 ± 44 mm^3
  body weight d0: 22.1 ± 1.3 g
[2]; [15]
  RTV (Average ± SD): 8.40 ± 1.35
  TV d21 (average ± SD): 1,279 ± 353 mm^3
  body weight d21: 23.7 ± 0.8 g
[2]; [16]
  TV d0 (average ± SD): 154 ± 45 mm^3
  body weight d0: 22.2 ± 1.1 g
[2]; [17]
  RTV (Average ± SD): 5.48 ± 2.99
  TV d21 (average ± SD): 821 ± 406 mm^3
  body weight d21: 22.7 ± 0.9 g
[2]; oral 50 mg/kg for three weeks
  change in body weight of the mice during the experiment: no change in body weight
[1]; [9]
  IC50: 8 nM
[1]; [13]
  IC50: ~8 nM
[8]
  bioavailability: 34.4%

From US10766889B2, “Aryl-2,2′-tandem bisthiazole compound and preparation method and use thereof” (SHANGHAI INSTITUTE OF MATERIA MEDICA, CHINESE ACADEMY OF …, priority 2016, dated 2020)
